Here are results for 9 molecules from publication PMC10649274 (International Journal of Molecular Sciences, 2023).

The test system of test [1] is native NMDA receptors. Particulars: cited from earlier work.
In test [2] the test system is rat retinal excitotoxicity model. Particulars: cited from earlier work.
Test [3] relates to native NMDA receptors. Nature of the test: Whole-cell patch clamp of NMDA plus glycine induced currents in isolated CA1 pyramidal neurons. The test is classed as cell-based, rat. Particulars: for change of inhibition with increase of NMDA concentration / inhibition at 1 mM NMDA: −30 mV. The protocol:
The rats were anesthetised with sevoflurane and then decapitated. The brains were brought out quickly and cooled to 2–4 °C. […] All experiments were performed at room temperature.
Vibrodissociation method was used to free CA1 pyramidal neurons from slices. This method allows for isolating cells without enzymatic treatment and keeping them in more native state. Pyramidal cells were isolated from the stratum pyramidale and distinguished from non-pyramidal cells on the basis of pyramidal-like somata and preserved apical dendrites.
To record membrane currents in response to applications of NMDA and glycine, the whole-cell configuration of patch clamp technique was used. Series resistance (<20 MΩ) was compensated by 70–80% and monitored during experiments. Only cells with stable holding currents were used in further analysis. The current signals were amplified using EPC-8 (HEKA Electronics, Lambrecht, Germany), filtered at 5 kHz, sampled, and stored on a personal computer. RSC-200 (BioLogic Science Instruments, Claix, France) perfusion system was used to apply the drugs under computer control. […] The pipettes with resistance of 2–5 MΩ were filled with the following solution (in mM): CsF 100, CsCl 40, NaCl 5, CaCl2 0.5, EGTA 5, HEPES 10 (pH adjusted to 7.2 with CsOH). […] Other reagents were purchased from MedChemExpress (Monmouth Junction, NJ, USA), Sigma (St. Louis, MO, USA), or Tocris Bioscience (Bristol, UK).
NMDA receptors were activated with 100 µM NMDA plus 10 µM glycine unless otherwise stated. […] Kinetics of transient processes of more than 20 ms duration were approximated with single or double exponential functions. In case of double exponential fitting, the weighted time constant was used.

Test [4] deals with native NMDA receptors. Nature of the test: Analysis of voltage dependence of NMDA receptor block (Woodhull model with voltage-independent component, Equation (2)). It counts as cell-based, rat. The protocol:
NMDA receptors were activated with 100 µM NMDA plus 10 µM glycine unless otherwise stated. The percentages of blocking of the steady-state or peak currents by different drug concentrations were measured at −80, −30 or +30 mV holding voltages. Kinetics of transient processes of more than 20 ms duration were approximated with single or double exponential functions. In case of double exponential fitting, the weighted time constant was used.
The voltage dependence of compounds’ action was analyzed with the classical Woodhull model with the addition of a voltage-independent component. […] Kb is the affinity of a drug for the channel, and δ is the electrical depth of the binding site. The δ value reflects the fraction of membrane electric field that the charged blocking molecule crosses on its pathway between the external media and the binding site in the channel.
Thus, we deduced Equation (2), taking it into account and assuming that the binding to the deep and shallow site is independent:(2) B=100−100/(1+C/(Kvd∗exp〖Fzδ/RTV〗)+C/Kvi+(C∗C)/((Kvd∗exp〖Fzδ/RTV〗∗Kvi))
In this equation, Kvd is the affinity of the drug to the deep site, Kvi—the affinity of the drug to the shallow site, and other parameters are the same as in Equation (1).
All experimental data are presented as the mean ± SD estimated from at least four experiments (cells). Significance of the effects was tested with t-tests. Differences were considered significant at p < 0.05. Concentration dependencies were approximated with Hill equation. Voltage dependencies were approximated with Equation (2). […] Approximation error values were taken as the precision measures.

The subject of test [5] is native NMDA receptors. Particulars: cited from earlier work. The source holds these as a separate data set.
The mark [6] stands for this setting: −80 mV holding voltage, native NMDA receptors, earlier papers of the authors, read-out: IC50, −80 mV.
[7] abbreviates: Equation (2) with fixed zδ (0.55 mono-, 1.1 dicationic), reanalysis of earlier data [16],[17], read-out: Kvd, fixed zδ (converted).
The mark [8] stands for this setting: Equation (2) with fixed zδ (0.55 mono-, 1.1 dicationic), reanalysis of earlier data [16],[17], read-out: Kvi, fixed zδ (converted).
[9] abbreviates: fit with consensus zδ, read-out: binding constant for the deep site (Kvd).
The mark [10] stands for this setting: Equation (2) fit, zδ free, reanalysis of the authors' earlier voltage dependence data [16],[17], read-out: Kvd.
Where [11] appears, read: Equation (2) fit, zδ free, reanalysis of the authors' earlier voltage dependence data [16],[17], read-out: Kvi.

“Also recorded” adds a separate entry of the source. Like-named read-outs stand apart in the source and are kept apart here.

Broadly, the IC50 is the midpoint of a concentration-inhibition curve. For the molecule `CN(C)C(=O)COC(=O)Cc1ccc(OC(=O)c2ccc(NC(=N)N)cc2)cc1` [Camostat], the “inhibition of native NMDA receptors” value with native NMDA receptors [1] is reported as “low activity; also recorded: practically ineffective”. Further, on native NMDA receptors [1] (setting [6]), the concentration for half-maximal inhibition (IC50) is over 100 µM. Also, the retinal protection entry in test [2] is listed as “did not demonstrate retinal protection activities”.

As for `NC(CCCP(=O)(O)O)C(=O)O` [D-AP5], the “inhibition at high NMDA concentrations” value in the test on native NMDA receptors [3] (5 µM, high NMDA concentrations) was “became weak, decaying to zero”.

As for `N=C(N)c1ccc(-c2cc3ccc(C(=N)N)cc3[nH]2)cc1` [DAPI], the “change of inhibition with increase of NMDA concentration” value with native NMDA receptors [3] was “agonist-dependent”. The “inhibition at 1 mM NMDA” value with native NMDA receptors [3] is reported as “remained significant”. For the same molecule, the “change of inhibition with increase of NMDA concentration from 30 to 1000 µM” value (“change of inhibition with increase … to 1000 µM” below) in the test with native NMDA receptors [3] (−80 mV) is reported as “agonist-dependent”. Also, the Kd is 5000 µM at native NMDA receptors [4] (setting [7]), 3.16 µM on native NMDA receptors [4] (setting [8]) and over 1000 µM at native NMDA receptors [4] (setting [9]). Besides, in the test with native NMDA receptors [1], the “type of channel block (interaction with channel gate)” value (from here on “type of channel block”) was “foot-in-the-door”. For the same molecule, the IC50 at native NMDA receptors [1] (setting [6]) was 3.1 ± 0.6 µM. Besides, the “voltage dependence of NMDA receptor inhibition” value in the test on native NMDA receptors [5] was “Completely voltage-independent”.

As to `N=C(N)c1ccc(/N=N/Nc2ccc(C(=N)N)cc2)cc1` [Diminazene], in the test on native NMDA receptors [3], the “change of inhibition with increase of NMDA concentration” value is recorded as “significant attenuation”. For the same molecule, the “inhibition at 1 mM NMDA” value in the test on native NMDA receptors [3] is reported as “remained significant”. Also, the “change of inhibition with increase … to 1000 µM” value in the test with native NMDA receptors [3] (−80 mV) is “did not differ significantly”. In addition, the Kd on native NMDA receptors [4] (setting [10]) was about 600 µM; on native NMDA receptors [4] (setting [11]), 14 ± 2 µM; on native NMDA receptors [4] (setting [7]), 1500 µM; at native NMDA receptors [4] (setting [8]), 14 ± 2 µM; on native NMDA receptors [4] (setting [9]) it was over 1000 µM. The “type of channel block” value in the test with native NMDA receptors [1] was “foot-in-the-door”. The half-inhibitory concentration (IC50) on native NMDA receptors [1] (setting [6]) was 13 ± 3 µM. Moreover, the “voltage dependence of NMDA receptor inhibition” value with native NMDA receptors [5] was “complex voltage dependence”.

Turning to `N=C(N)c1ccc(-c2ccc(-c3ccc(C(=N)N)cc3)o2)cc1` [Furamidine], the “change of inhibition with increase … to 1000 µM” value in the test on native NMDA receptors [3] (holding voltage not stated) was “not attenuated significantly”. Further, the Kd was 20 ± 5 µM at native NMDA receptors [4] (setting [10]), 3.4 ± 0.4 µM on native NMDA receptors [4] (setting [11]), 21.8 µM on native NMDA receptors [4] (setting [7]) and 3.3 µM on native NMDA receptors [4] (setting [8]). Besides, the “type of channel block” value with native NMDA receptors [1] is listed as “foot-in-the-door”. Besides, the concentration for half-maximal inhibition (IC50) at native NMDA receptors [1] (setting [6]) was 0.64 ± 0.13 µM. Besides, the “voltage dependence of NMDA receptor inhibition” value in the test with native NMDA receptors [5] was “strongly voltage-dependent”.

With `CCOC(=O)c1ccc(OC(=O)CCCCCNC(=N)N)cc1` [Gabexate], the Kd on native NMDA receptors [4] (setting [10]) was about 300 µM; at native NMDA receptors [4] (setting [11]), 29 ± 8 µM; on native NMDA receptors [4] (setting [7]), 800 µM; at native NMDA receptors [4] (setting [8]), 25 µM. Further, in the test on native NMDA receptors [1], the “inhibition of native NMDA receptors” value was “inhibited native NMDA receptors”. The “nature of voltage-independent inhibition” value in the test on native NMDA receptors [1] is “agonist-dependent but non-competitive; also recorded: mostly voltage-independent and not competitive”. For the same molecule, the “type of channel block” value in the test with native NMDA receptors [1] is given as “did not demonstrate any signs of a “foot-in-the-door” or trapping channel block”. For the same molecule, the 50% inhibitory concentration (IC50) at native NMDA receptors [1] (setting [6]) is 16 ± 3 µM. Besides, the “voltage dependence of NMDA receptor inhibition” value in the test with native NMDA receptors [5] was “Completely voltage-independent”. Further, the retinal protection entry in test [2] is on record as “did not demonstrate retinal protection activities”.

As to `CC(C(O)c1ccc(O)cc1)N1CCC(Cc2ccccc2)CC1` (centres unmarked) [Ifenprodil, ifenprodil], in the test with native NMDA receptors [1] (CA1 pyramidal cells, biphasic concentration dependence), the “share of high-affinity component in inhibition of NMDA receptor currents” value is “approximately 60%”.

In the case of `CC12CC3CC(C)(C1)CC(N)(C3)C2` [Memantine], at native NMDA receptors [1] (−30 mV, 1 mM Mg2+, read-out: IC50 in the presence of magnesium), the IC50 is 6.4 ± 0.5 µM.

`N=C(N)c1ccc(OCCCCCOc2ccc(C(=N)N)cc2)cc1` [Pentamidine]: the “change of inhibition with increase … to 1000 µM” value in the test on native NMDA receptors [3] (holding voltage not stated) is on record as “not attenuated significantly”. Moreover, the Kd on native NMDA receptors [4] (setting [10]) is 60 ± 25 µM; on native NMDA receptors [4] (setting [11]), 8 ± 1 µM; on native NMDA receptors [4] (setting [7]), 27 µM; on native NMDA receptors [4] (setting [8]), 10 µM. Also, on native NMDA receptors [1], the “IC50 (NMDA receptor antagonism)” value is on record as “submicromolar range”. The “type of channel block” value in the test on native NMDA receptors [1] is “partial trapping”. The IC50 at native NMDA receptors [1] (setting [6]) was 0.41 ± 0.08 µM. Also, the “voltage dependence of NMDA receptor inhibition” value in the test with native NMDA receptors [5] is listed as “strongly voltage-dependent”.
